Source: US20080311103A1, “Anti-Inflammatory Peptides and Methods of Use Thereof” (YEDA RESEARCH AND DEVELOPMENT CO. LTD. at THE WEIZMANN …, priority 2004, published 2008)
Like-named read-outs stand apart in the source and are kept apart here. Ends that are not written are not given here.

What was measured:
[1] = test system: mice sensitized with oxazolone; format: in vivo, mouse; conditions: ear measured 24 hours after oxazolone challenge, BALB/c mice
Protocol: Groups of 5 female inbred BALB/c mice (The Jackson Laboratory, Bar Harbor, Me.) were sensitized on the shaved abdominal skin with 2% oxazolone (100 μl) dissolved in acetone/olive oil [4:1 (vol/vol)] applied topically. Delayed type hypersensitivity (DTH) was elicited 5 days later by challenging the mice with 0.5% oxazolone in acetone/olive oil (10 μl given topically to each side of the ear). A constant area of the ear was measured immediately before and 24 hours after the challenge using a Mitutoyo engineer's micrometer. The percent inhibition of DTH is calculated as follows:
% Inhibition=[1-{(treated−negative control)/(positive control−negative control)}]×100.
The positive control is the DTH reaction to oxazolone elicited in sensitized mice without treatment. The negative control is the background swelling produced by the oxazolone antigen in naïve non-sensitized mice.
Peptides Nos. 1-5 were given to the mice by mini perfusion pumps (alzet osmotic pump model 2001), which contained the indicated peptide (40 μg; 200 μl). The pumps were implanted under the mouse skin one day before oxazolone sensitization and they released the peptide in a rate of 1 μl per hour (0.2 μg/hour) for 7 days.
Peptides Nos. 6-10 were given to the mice by subcutaneously injection (1 μg or 10 μg per mouse), every day, starting at one day before oxazolone sensitization and ending at day 5 post DTH initiation.

[2] = test system: anti-CD3 antibody induced TNFα secretion from T cells; test: TNFα secretion by anti-CD3 activated T cells; format: cell-based, human; conditions: peptide 100 ng/ml; 24 hours; ELISA; FIG. 7A
Protocol: (§1) Human T cells were purified and maintained in culture (RPMI containing 10% FCS, 1% Pyruvate, 1% glutamine, 1% antibiotics, 7.5% CO2, humidified atmosphere) for 15 hr before they were transferred to RPMI and activated (2 hr, 37° C.) with the indicated concentrations of the peptides. The cells were then plated (1.5×10^6 cells/0.5 ml/well) in 24 wells plates (non-tissue culture grade) precoated with anti-CD3 mAb in order to stimulate the cells to secrete cytokines. After 24 hours, the supernatants were collected and their cytokine content (TNFα and IFNγ) was determined by ELISA using anti-IFNγ and anti TNFα mAb (Pharmingen; San Diego, Calif.) according to the manufacturer's instructions.

[3] = test system: anti-CD3 antibody induced IFNγ secretion from T cells; test: IFNγ secretion by anti-CD3 activated T cells; format: cell-based, human; parameters: concentration or dose not given beside the values; conditions: 24 hours; ELISA; FIG. 7B
Protocol: as §1

BALB/C mice = test: TNBS-induced colitis model of inflammatory bowel disease (IBD); format: in vivo, mouse; conditions: 200 μg/mouse SC daily; day 7 after TNBS
Protocol: BALB/C mice, which were anesthetized for 5-10 min, received by intrarectal administration, 30 μl of a solution of 2,4,6-trinitrobenzene sulfonic acid (TNBS; 100 mg/kg) dissolved in 0.9% NaCl and mixed with an equal volume of ethanol (50% ethanol). Animals were killed 7 days after TNBS administration.
Wound fluid peptides were administered once daily by subcutaneous (SC) administration starting 1 day before the induction of colitis and every day for the next 7 days as follows:
Treatment with the wound fluid peptides was evaluated at day 7 by determination of macroscopic inflammation scores. The colon of each mouse was examined under a dissecting microscope to evaluate the macroscopic lesions according to the Wallace criteria. The Wallace score lists macroscopic colon lesions on a scale from 0 to 10 based on features reflecting inflammation, such as hyperemia, thickening of the bowel, and extent of ulceration (Wallace, J. L., et al. 1989, Gastroenterology, 96:29).

NF-κB = test: Nuclear translocation of NF-κB in T cells (Western blot); format: cell-based; conditions: peptide 100 ng/ml for 2 hours, then anti-CD3 mAb 24 hr; human T cells
From the text: To address the modulatory role of the wound fluid peptides on the signal transduction cascade leading to regulation of T-cell secretion of TNF-α(and IFN-γ, the nuclear translocation of NF-κB was detected by probing nuclear and cytoplasmic T-cell extracts using mAb specific for the p65 subunit of NF-κB. The nuclear protein Lamin B was used as continuatively expressed control protein for the quantification of protein amounts.
Human T cells. T cells were purified from the peripheral blood of healthy human donors (Blood Bank; Tel-Hashomer, Israel). The whole blood was incubated (20 min, 22° C.) with RosetteSep™ human T-cell enrichment cocktail (StemCell Technologies, Vancouver, BC, Canada). The remaining unsedimented cells were then loaded onto Lymphocyte Separation Medium (ICN Biomedicals; Belgium), isolated by density centrifugation, and washed with PBS. The purified cells (>95% CD3^+ T cells) so obtained were cultured in RPMI containing antibiotics and 10% heat-inactivated FCS. Western blot analysis of T-cell nuclear extracts. Purified T cells (5×10^6) were preincubated with the peptides (100 ng/ml) for 2 hours (37° C. in a 7% CO2, humidified atmosphere). The cells were then replated in 24-well plates pre-coated with anti-CD3 mAb for 24 hr (37° C. in a 7% CO2, humidified atmosphere). T cells were lysed in 10 mM HEPES, 1.5 mM MgCl2, 1 mM dithiothreitol (DTT), 1 mM PMSF, 0.5% Nonidet P-40. The lysates were incubated on ice for 10 min and centrifuged at 2000 rpm for 10 min at 4° C. The supernatants (cytoplasmic extracts) were transferred and the pellet (nuclei) was suspended in buffer containing 30 mM HEPES, 450 mM NaCl, 25% Glycerol, 0.5 mM EDTA, 6 mM DTT, 12 mM MgCl2 1 mM PMSF, 10 μg/ml leupeptin, 10 μg/ml pepstatin, 1% phosphatase inhibitor cocktail, and the suspension was incubated on ice for 30 min. The lysates were cleared by centrifugation (30 min, 14×10^3 rpm, 4° C.), and the resulting supernatants analyzed for protein content. […]

[4] = Stability to serum proteases (HPLC); format: in vitro ADME, mouse
Protocol: To test the stability of peptide No. 5 to blood proteases, 100 μl of a 1 mg/ml solution of the peptide were incubated at 37° C. with 40 μl of mouse serum. Samples withdrawn after 0, 2, 4 or 24 hours were precipitated with 200 μl of methanol and centrifuged for 1 min at 10,000×g. The crude solution was analyzed by HPLC equipped with a 220 nm detector. The crude solution was diluted in 0.1% trifluoroacetic acid (TFA), applied on a RP-18^e column (Chromolith) (MERCK, Darmstadt, Germany), and the HPLC conditions were as follows: mobile phase A, TFA (0.1%) in water; mobile phase B: TFA (0.1%) in acetonitrile (75%). The flow rate was 3 ml/min and the gradient was 0 to 100% B for the first 10 min, 100% B for additional 5 min, and for the last 5 min the gradient was 100% B to 0.

T cells = test: Chemotaxis assay: T cell migration toward SDF-1α; format: cell-based; conditions: SDF-1α 250 ng/ml, 3 hr
Protocol: The migration of ^51-[Cr]-labeled T cells was examined in […] Transwell chemotaxis apparatus (6.5-mm diameter; Corning, N.Y.), consisting of two compartments separated by polycarbonate filters (5 μm pore size) pretreated (1 hr, 37° C.) with FN (25 μg/ml). ^51-[Cr]-labeled T cells (2×10^5 in 100 μl of RPMI containing 0.1% BSA and antibiotics), which were pre-incubated with the indicated concentrations of peptides (30 min, 37° C.), were added to the upper chambers. The bottom chambers contained 0.6 ml of the same media, with or without human Stromal cell-Derived Factor-1α (SDF-1α; 250 ng/ml). After incubation at 37° C. for 3 hr (7.5% CO2-humidified atmosphere), cells that had transmigrated into the lower wells were collected, centrifuged, and lysed (in 100 μl of distilled water containing 1 M NaOH and 0.1% Triton X-100), and the radioactivity in the resulting supernatants was determined with a γ-counter. The percentage (±SD) of cell migration was calculated as the radioactivity counts in the lysates of the lower chambers (representative of the migrating cells) divided by the total counts (representative of 2×10^5 cells).

Jurkat and THP-1 cells = test: TNFα secretion by PMA/PHA induced Jurkat and THP-1 cells; format: cell-based, human; conditions: 48 hours, ELISA
Protocol: Jurkat cells human T cell lymphoma line) (2×10^6 cells/ml) cultured in RPMI-1640 supplemented with 10% FCS were activated with PMA (50 ng/ml) and phytohaemagglutinin PHA (4 µg/ml) for 6 hours at 37° C. (7.5% CO2-humidified atmosphere). Thereafter, the cells were washed, plated on 24-well plates (10^6 cells/well in 0.5 ml), and incubated (1 hour at 37° C., 7.5% CO2-humidified atmosphere) with the indicated concentrations of peptides 1-5. Following the incubation, THP-1 cells (human monocytic cell line derived from a patient with acute monocytic leukaemia; 1.25×10^5 cells/0.5 ml/well) were added to the wells. After 48 hours, the supernatants were collected and their TNF[…] content was determined by ELISA using anti TNF[…] mAb (Pharmingen; San Diego, Calif.) according to the manufacturer's instructions.

[5] = FIG. 2, peptides subcutaneously 1 μg or 10 μg per mouse every day
[6] = FIG. 1, peptides by implanted osmotic pump, 0.2 μg/hour for 7 days

Molecule	inhibition of DTH response [1, 5]	inhibition of anti-CD3 antibody induced TNFα secretion from T cells [2] [%]	inhibition of anti-CD3 antibody induced IFNγ secretion from T cells [3] [%]	inhibition of DTH response [1, 6]	further results
DHSKNPVGV [compound 8, residues 320-328 of ADAM 8; identified in wound fluids, then synthesized]	60%	30	15	–	–
C[C@@H]1C[C@H]2[C@@H]3CCC4=CC(=O)C=C[C@]4(C)[C@@]3(F)[C@@H](O)C[C@]2(C)[C@@]1(O)C(=O)CO [Dexamethasone, reference compound]	~70%	–	–	~70%	Wallace score (macroscopic inflammation score, scale 0 to 10) (BALB/C mice): 2.9±1
ALTDMPQM [compound 7, residues 250-257 of Fibrinogen Aα; identified in wound fluids, then synthesized]	hardly inhibited	30	30	–	–
ELERPGGNEI [compound 6, residues 260-269 of Fibrinogen Aα; identified in wound fluids, then synthesized]	50%	40	40	–	NF-κB translocation to the nucleus (NF-κB): significant down-regulation
NQGEESAEI [compound 10, residues 470-478 of Calcitonin receptor; identified in wound fluids, then synthesized]	30%	~70	75	–	–
NPDESSKPNMI [peptide No. 5, NPDESSKPNMI]	–	–	–	–	% Area (HPLC peak of peptide) ([4]; Test 1, 0 hours incubation with mouse serum): 74.23%; % Area (HPLC peak of peptide) ([4]; Test 1, 2 hours incubation at 37° C. with mouse serum): 75.08%; % Area (HPLC peak of peptide) ([4]; Test 1, 4 hours incubation at 37° C. with mouse serum): 68.94%; % Area (HPLC peak of peptide) ([4]; Test 1, 24 hours incubation at 37° C. with mouse serum): 68.69%; % Area (HPLC peak of peptide) ([4]; Test 2, 0 hours incubation with mouse serum): 90.62%; % Area (HPLC peak of peptide) ([4]; Test 2, 2 hours incubation at 37° C. with mouse serum): 87.32%; resistance to serum proteases ([4]; mouse serum, up to 24 hours): highly resistant; metabolised at 2 h, 0.71 mg/ml ([4]; mouse, mouse serum, after 2 hours (test 2), read-out: peptide degraded in the presence of mouse serum): ~3.5%; metabolised at 4 h, 0.71 mg/ml ([4]; mouse, mouse serum, after 4 hours (test 1), read-out: peptide degraded in the presence of mouse serum): 7.5%; metabolised at 24 h, 0.71 mg/ml ([4]; mouse, mouse serum, after 24 hours (test 1), read-out: peptide degraded in the presence of mouse serum): 7.5%; remaining at 24 h, 0.71 mg/ml ([4]; mouse, mouse serum, after 24 hours of exposure to serum proteases, read-out: peptide still present as an intact peptide): > 90%
NDADDST [compound 9, residues 302-308 of Cadherin 4; identified in wound fluids, then synthesized]	hardly inhibited	~50	40	–	–
TDYGKDLMEKV [peptide No. 4, residues 42-52 of Apo A-II; identified in wound fluids, then synthesized]	–	~50	~50	hardly inhibited	inhibition of T cell migration toward SDF-1α (T cells; peptide 1000 ng/ml): 30%; inhibition of TNFα secretion by Jurkat and THP-1 cells compared to PMA/PHA alone (Jurkat and THP-1 cells; peptide 1 μg/ml): 40%
MIESSMN [compound 1, residues 827-833 of LRP5; identified in wound fluids, then synthesized]	–	–	–	hardly inhibited	inhibition of T cell transmigration toward SDF-1α (T cells; concentration range 10-1000 ng/ml): did not show a significant inhibition; inhibition of TNFα secretion by Jurkat and THP-1 cells (Jurkat and THP-1 cells; concentration range 1-1000 ng/ml): did not exert a significant inhibition
